Laboratory results as given in article PMC8113725, “Structure–activity relationship of ipglycermide binding to phosphoglycerate mutases” (The Journal of Biological Chemistry, 2021).
Where two headings read alike, the source gives them in different places. Bridge positions count the residues as written; N and C are the ends. Square brackets hold non-standard residues; d marks the D form. Ends that are not written are not given here. Peptide text beside a SMILES is read from it. * marks the point of attachment. Phe(4-F) = N[C@@H](Cc1ccc(F)cc1)C(=O)O; Nva = CCC[C@H](N)C(=O)O; NHOH = ON*

Legend:
E. coli iPGM [1] = target: T1, E. coli iPGM (Escherichia coli, UniProt P37689); experiment: SPR binding kinetics and saturation binding, biotinylated iPGM on Biotin CAPture chip (Biacore S200); conditions: for koff / kon: LoQ = limit of quantitation
E. coli iPGM [2] = target: T1, E. coli iPGM; experiment: biochemical; conditions: […]
C. elegans iPGM = C. elegans iPGM (Caenorhabditis elegans, UniProt G5EFZ1); experiment: SPR binding kinetics and saturation binding, biotinylated iPGM on Biotin CAPture chip (Biacore S200)
B. malayi iPGM = target: T2, B. malayi iPGM (Brugia malayi, UniProt Q4VWF8); experiment: biochemical; assay type: binding; conditions: for Kd: Supplementary Table 5, SPR, B.m. iPGM, unit inferred
T2 sequence (Q4VWF8 1-515): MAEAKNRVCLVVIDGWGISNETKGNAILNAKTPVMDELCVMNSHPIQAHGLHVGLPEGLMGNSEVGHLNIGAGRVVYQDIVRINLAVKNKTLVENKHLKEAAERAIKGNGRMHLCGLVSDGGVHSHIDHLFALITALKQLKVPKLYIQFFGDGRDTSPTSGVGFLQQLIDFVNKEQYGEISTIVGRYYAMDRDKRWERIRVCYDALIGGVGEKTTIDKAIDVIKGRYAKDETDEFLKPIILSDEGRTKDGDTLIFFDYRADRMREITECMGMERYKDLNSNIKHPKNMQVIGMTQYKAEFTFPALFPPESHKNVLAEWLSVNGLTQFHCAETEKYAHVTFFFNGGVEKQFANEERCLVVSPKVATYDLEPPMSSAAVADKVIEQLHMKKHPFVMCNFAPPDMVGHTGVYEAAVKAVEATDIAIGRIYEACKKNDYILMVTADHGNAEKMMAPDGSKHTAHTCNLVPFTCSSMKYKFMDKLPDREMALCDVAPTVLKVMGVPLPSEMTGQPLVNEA

D. immitis iPGM = D. immitis iPGM (Dirofilaria immitis, UniProt F4ZE01); experiment: biochemical
Ce-2 Thr13Ser = target: T3, Ce-2 Thr13Ser (synthetic construct, thioether N-8); experiment: SPR
T3 chain: {CH2CO}-[dY]DYPGDYCYLYGSC

Ce-1 NHOH = target: T4, Ce-1 NHOH (synthetic construct, thioether N-8; SMILES …); experiment: SPR
T4 chain: {CH2CO}-[dY]DYPGDHCYLYGT-{NHOH}

Ce-2 = target: T5, Ce-2 (synthetic construct, thioether N-8); experiment: SPR
T5 chain: {CH2CO}-[dY]DYPGDYCYLYGTC

[3] = Supplementary Table 5, SPR, E.c. iPGM
[4] = Supplementary Table 5, SPR, E.c. iPGM, unit inferred
[5] = SPR, 25 °C, global fit to 1:1 binding model

Molecule	koff (E. coli iPGM [1]; [3]) [s⁻¹]	kon (E. coli iPGM [1]; [3]) [M⁻¹ s⁻¹]	Kd (E. coli iPGM [1]; [4]) [nM]	IC50 (E. coli iPGM [2]) [nM]	Kd (C. elegans iPGM) [nM]	koff (C. elegans iPGM) [s⁻¹]	kon (C. elegans iPGM) [M⁻¹ s⁻¹]	koff (B. malayi iPGM) [s⁻¹]	kon (B. malayi iPGM) [M⁻¹ s⁻¹]	Kd (B. malayi iPGM) [nM]	IC50 (D. immitis iPGM; Di iPGM Ave IC50 (M)) [M]	further results
CC(C)C[C@H](NC(=O)[C@H](Cc1ccc(O)cc1)NC(=O)[C@@H]1CSCC(=O)N[C@H](Cc2ccc(O)cc2)C(=O)N[C@@H](CC(=O)O)C(=O)N[C@@H](Cc2ccc(O)cc2)C(=O)N[C@@H](C(C)C)C(=O)NCC(=O)N[C@@H](CC(=O)O)C(=O)N[C@@H](Cc2ccc(O)cc2)C(=O)N1)C(=O)N[C@@H](Cc1ccc(O)cc1)C(=O)NCC(=O)N[C@H](C(=O)N[C@@H](CS)C(N)=O)[C@@H](C)O [Ce-2 P4V]	0.000272	37300	7.29	8960	0.0668	1.15e-05	173000	7.52e-05	194000	0.407	2.14e-09	–
CCC[C@@H]1NC(=O)[C@@H](Cc2ccc(O)cc2)NC(=O)CSC[C@@H](C(=O)N[C@@H](Cc2ccc(O)cc2)C(=O)N[C@@H](CC(C)C)C(=O)N[C@@H](Cc2ccc(O)cc2)C(=O)NCC(=O)N[C@H](C(=O)N[C@@H](CS)C(N)=O)[C@@H](C)O)NC(=O)[C@H](Cc2ccc(O)cc2)NC(=O)[C@H](CC(=O)O)NC(=O)CNC(=O)[C@@H]2CCCN2C(=O)[C@H](Cc2ccc(O)cc2)NC1=O [Ce-2 D2Nva] ({CH2CO}-[dY][Nva]YPGDYCYLYGTC-NH2; thioether N-8)	0.00195	132000	47.1	8730	0.0257	4.98e-05	1.94e+06	0.000143	376000	0.378	1.51e-09	IC50 (D. immitis iPGM; IC50 (M)): 1.46e-09 M
CC(C)C[C@H](NC(=O)[C@H](Cc1ccc(O)cc1)NC(=O)[C@@H]1CSCC(=O)N[C@H](Cc2ccc(O)cc2)C(=O)N[C@@H](CC(=O)O)C(=O)N[C@@H](Cc2ccc(F)cc2)C(=O)N2CCC[C@H]2C(=O)NCC(=O)N[C@@H](CC(=O)O)C(=O)N[C@@H](Cc2ccc(O)cc2)C(=O)N1)C(=O)N[C@@H](Cc1ccc(O)cc1)C(=O)NCC(=O)N[C@H](C(=O)N[C@@H](CS)C(N)=O)[C@@H](C)O [Ce-2 Y3(4F)F] ({CH2CO}-[dY]D[Phe(4-F)]PGDYCYLYGTC-NH2; thioether N-8)	–	–	–	4180	–	–	–	–	–	–	1.52e-09	–
CC(C)C[C@H](NC(=O)[C@H](Cc1ccc(F)cc1)NC(=O)[C@@H]1CSCC(=O)N[C@H](Cc2ccc(O)cc2)C(=O)N[C@@H](CC(=O)O)C(=O)N[C@@H](Cc2ccc(O)cc2)C(=O)N2CCC[C@H]2C(=O)NCC(=O)N[C@@H](CC(=O)O)C(=O)N[C@@H](Cc2ccc(O)cc2)C(=O)N1)C(=O)N[C@@H](Cc1ccc(O)cc1)C(=O)NCC(=O)N[C@H](C(=O)N[C@@H](CS)C(N)=O)[C@@H](C)O [Ce-2 Y9(4F)F] ({CH2CO}-[dY]DYPGDYC[Phe(4-F)]LYGTC-NH2; thioether N-8)	–	–	–	6930	–	–	–	–	–	–	2.8e-09	–
CC(C)C[C@H](NC(=O)[C@H](Cc1ccccc1)NC(=O)[C@@H]1CSCC(=O)N[C@H](Cc2ccc(O)cc2)C(=O)N[C@@H](CC(=O)O)C(=O)N[C@@H](Cc2ccc(O)cc2)C(=O)N2CCC[C@H]2C(=O)NCC(=O)N[C@@H](CC(=O)O)C(=O)N[C@@H](Cc2ccccc2)C(=O)N1)C(=O)N[C@@H](Cc1ccc(O)cc1)C(=O)NCC(=O)N[C@H](C(=O)N[C@@H](CS)C(N)=O)[C@@H](C)O [Ce-2 Y7F, Y9F] ({CH2CO}-[dY]DYPGDFCFLYGTC-NH2; thioether N-8)	–	–	–	4460	–	–	–	–	–	–	2.07e-08	IC50 (D. immitis iPGM; IC50 (M)): 2.03e-08 M
CC(C)C[C@H](NC(=O)[C@H](Cc1ccc(O)cc1)NC(=O)[C@@H]1CSCC(=O)N[C@H](Cc2ccc(O)cc2)C(=O)N[C@@H](CC(=O)O)C(=O)N[C@@H](Cc2ccc(O)cc2)C(=O)N2CCC[C@H]2C(=O)NCC(=O)N[C@@H](CC(=O)O)C(=O)N[C@@H](Cc2ccc(O)cc2)C(=O)N1)C(=O)N[C@@H](Cc1ccc(O)cc1)C(=O)NCC(=O)NCC(=O)N[C@@H](CS)C(N)=O [Ce-2 T13G]	0.00133	299000	10.8	99.4	0.0433	5.77e-05	1.32e+06	6.11e-05	1.19e+06	0.0493	1.08e-09	IC50 (D. immitis iPGM; IC50 (M)): 9.2e-10 M
CC(C)C[C@H](NC(=O)[C@H](Cc1ccc(O)cc1)NC(=O)[C@@H]1CSCC(=O)N[C@H](Cc2ccc(O)cc2)C(=O)N[C@@H](CC(=O)O)C(=O)N[C@@H](Cc2ccc(O)cc2)C(=O)N2CCC[C@H]2C(=O)NCC(=O)N[C@@H](CC(=O)O)C(=O)N[C@@H](Cc2ccc(O)cc2)C(=O)N1)C(=O)N[C@@H](Cc1ccc(O)cc1)C(=O)NCC(=O)N[C@H](C(=O)NO)[C@@H](C)O [Ce-2 C14NHOH]	–	–	–	14000	–	–	–	–	–	–	2.55e-09	–
COc1ccc(C[C@H]2NC(=O)CSC[C@@H](C(=O)N[C@@H](Cc3ccc(O)cc3)C(=O)N[C@@H](CC(C)C)C(=O)N[C@@H](Cc3ccc(O)cc3)C(N)=O)NC(=O)[C@H](Cc3ccc(O)cc3)NC(=O)[C@H](CC(=O)O)NC(=O)CNC(=O)[C@@H]3CCCN3C(=O)[C@H](Cc3ccc(O)cc3)NC(=O)[C@H](CC(=O)O)NC2=O)cc1 [Ce-2d Y1D(4OMe)F]	–	–	–	18700	–	–	–	–	–	–	6.18e-08	–
COc1ccc(C[C@@H]2NC(=O)CSC[C@@H](C(=O)N[C@@H](Cc3ccc(O)cc3)C(=O)N[C@@H](CC(C)C)C(=O)N[C@@H](Cc3ccc(O)cc3)C(N)=O)NC(=O)[C@H](Cc3ccc(O)cc3)NC(=O)[C@H](CC(=O)O)NC(=O)CNC(=O)[C@@H]3CCCN3C(=O)[C@H](Cc3ccc(O)cc3)NC(=O)[C@H](CC(=O)O)NC2=O)cc1 [Ce-2d Y1(4OMe)F]	–	–	–	20000	–	–	–	–	–	–	1.87e-08	–
CC(C)C[C@H](NC(=O)[C@H](Cc1ccc(O)cc1)NC(=O)[C@@H]1CSCC(=O)N[C@H](Cc2ccc(O)cc2)C(=O)N[C@@H](CC(=O)O)C(=O)N[C@@H](Cc2ccc(O)cc2)C(=O)N2CCC[C@H]2C(=O)NCC(=O)N[C@@H](CC(=O)O)C(=O)N[C@@H](Cc2c[nH]cn2)C(=O)N1)C(=O)N[C@@H](Cc1ccc(O)cc1)C(=O)NCC(=O)N[C@H](C(=O)NO)[C@@H](C)O [Ce-1 NHOH]	0.914	181000	5140	8970	0.109	0.000171	1.86e+06	0.00148	203000	11.5	2.92e-09	t½ (E. coli iPGM [1]; SPR, dissociation half-life): ≤1 s; Kd (E. coli iPGM [1]; SPR, Req hyperbolic fit where steady state reached, else koff/kon): 5000 nM; koff (C. elegans iPGM; [5]): 7.8e-05 s⁻¹; kon (C. elegans iPGM; [5]): 1.9e+06 M⁻¹ s⁻¹; koff (B. malayi iPGM; [5]): 0.0015 s⁻¹; kon (B. malayi iPGM; [5]): 200000 M⁻¹ s⁻¹
CC(C)C[C@H](NC(=O)[C@H](Cc1ccc(O)cc1)NC(=O)[C@@H]1CSCC(=O)N[C@H](Cc2ccc(O)cc2)C(=O)N[C@@H](CCC(N)=O)C(=O)N[C@@H](Cc2ccc(O)cc2)C(=O)N2CCC[C@H]2C(=O)NCC(=O)N[C@@H](CC(=O)O)C(=O)N[C@@H](Cc2ccc(O)cc2)C(=O)N1)C(=O)N[C@@H](Cc1ccc(O)cc1)C(N)=O [Ce-2d D2Q]	–	–	–	8040	–	–	–	–	–	–	3.31e-07	–
iPGM (protein) MFVALGAQIYRQYFGRRGMAMANNSSVANKVCLIVIDGWGVSEDPYGNAILNAQTPVMDKLCSGNWAQIEAHGLHVGLPEGLMGNSEVGHLNIGAGRVIYQDIVRINLAVKNNKFVTNESLVDACDRAKNGNGRLHLAGLVSDGGVHSHIDHMFALVKAIKELGVPELYLHFYGDGRDTSPNSGVGFLEQTLEFLEKTTGYGKLATVVGRYYAMDRDNRWERINVAYEAMIGGVGETSDEAGVVEVVRKRYAADETDEFLKPIILQGEKGRVQNDDTIIFFDYRADRMREISAAMGMDRYKDCNSKLAHPSNLQVYGMTQYKAEFPFKSLFPPASNKNVLAEWLAEQKVSQFHCAETEKYAHVTFFFNGGLEKQFEGEERCLVPSPKVATYDLQPEMSAAGVADKMIEQLEAGTHPFIMCNFAPPDMVGHTGVYEAAVKACEATDIAIGRIYEATQKHGYSLMVTADHGNAEKMKAPDGGKHTAHTCYRVPLTLSHPGFKFVDPADRHPALCDVAPTVLAIMGLPQPAEMTGVSIVQKI	–	–	–	–	–	–	–	–	–	–	–	Kd (Ce-2 Thr13Ser): 0.029 nM; Kd (Ce-1 NHOH): 0.11 nM; Kd (Ce-2): 0.038 nM
iPGM (protein) MLVSKKPMVLVILDGYGYREEQQDNAIFSAKTPVMDALWANRPHTLIDASGLEVGLPDRQMGNSEVGHVNLGAGRIVYQDLTRLDVEIKDRAFFANPVLTGAVDKAKNAGKAVHIMGLLSAGGVHSHEDHIMAMVELAAERGAEKIYLHAFLDGRDTPPRSAESSLKKFEEKFAALGKGRVASIIGRYYAMDRDNRWDRVEKAYDLLTLAQGEFQADTAVAGLQAAYARDENDEFVKATVIRAEGQPDAAMEDGDALIFMNFRADRAREITRAFVNADFDGFARKKVVNVDFVMLTEYAADIKTAVAYPPASLVNTFGEWMAKNDKTQLRISETEKYAHVTFFFNGGVEESFKGEDRILINSPKVATYDLQPEMSSAELTEKLVAAIKSGKYDTIICNYPNGDMVGHTGVMEAAVKAVEALDHCVEEVAKAVESVGGQLLITADHGNAEQMRDPATGQAHTAHTNLPVPLIYVGDKNVKAVEGGKLSDIAPTMLSLMGMEIPQEMTGKPLFIVE	–	–	–	–	–	–	–	–	–	–	–	Kd (Ce-2 Thr13Ser): 1.3 nM; Kd (Ce-1 NHOH): 5000 nM; Kd (Ce-2): 69 nM
